From patent US5977144A (priority 1997, dated 1999) come the findings set out here.

Structures are written as SMILES. “Also recorded” adds a separate entry of the source.

The inhibition is how much of the control response was suppressed.

Assay [1] addresses T1, alpha4beta2 receptor (cytisine binding, rat brain membranes) (Rattus norvegicus, UniProt P09483+P12390).
T1 construct: from tissue; host or cells: rat brain membranes
Briefly: biochemical. Conditions: 1 μM (Table 2); read-out: alpha4beta2 binding: % inhibition of cytistine binding. An excerpt: Further, the cinnamylidene-anabaseines displaced high affinity cytisine binding to rat brain membranes with lower affinity than other types of benzylidene-anabaseines. These observations are consistent with the cinnamylidene-anabaseines having some selectivity for alpha7 receptor subtypes over other types of nicotinic receptors, especially alpha4beta2 receptors, based on the types of receptors to which alpha-bungarotoxin and cytisine bind to in brain.

Assay [2] deals with nucleus basalis lesioned rats. Briefly: Passive avoidance behavior in nucleus basalis lesioned rats. The format is in vivo, rat. Particulars: for passive avoidance behavior (in words): nucleus basalis lesioned rats. The protocol: Passive avoidance behavior was measured in nucleus basalis lesioned rats after intraperitoneal (IP) injections of drugs (base weight) or 0.9% saline diluent. For lesions, male 5 month old Sprague Dawley rats were anesthetized with 30 mg/kg sodium pentobarbital (IP) and then infused bilaterally with 1 μl of 5 μg/μl ibotenic acid in phosphate buffered saline, pH 7.4, into the nucleus basalis as described previously (17). Infusion coordinates were anterior 7.0 mm, lateral 2.6 mm and vertical 6.5 mm according to Paxinos and Watson (Paxinos and Watson, 1986).
Following surgery, animals were returned to their individual home cages and fed semi-solid mash made from Purina Rat Chow for several days. One month later, animals were trained in a two chamber passive avoidance paradigm. Fifteen min after IP drug injection, they were placed in the lit compartment, and allowed to enter the dark adjoining chamber. Animals that entered the second chamber received a mild foot shock (0.8 mA) for 1 sec. Rats were tested for latency 24 hr later for up to 5 min; this test also began 15 min after injection. Statistical analyses utilized rank order nonparametric comparisons of latencies.

Assay [3] concerns PC12 cells. The format is cell-based. The method, then:
PC12 cell-culture methods were modified from Greene and Tischler (1976). Cells were plated at 30-40% confluence and grown in Dulbecco's Modified Eagle Medium containing 10% heat-inactivated horse serum, 5% fetal bovine serum, 100 units/ml penicillin, 100 μg/ml streptomycin and 0.5 mM 1-glutamine. Cultures were maintained at 37° C., […] /6% CO2 and 90-92% humidity in culture plates pre-coated with poly-1lysine (10 g/L). Cultures were maintained for 7 days in serum-supplemented medium to which 100 ng/ml rat 2.5S NGF was added at day 1. On day 7, conditioned medium was replaced serum-free medium containing specified drugs. Four days later, cell density was estimated using the NIH Image program version 1.47 and number of neurite-expressing cells counted manually in blind fashion as described previously (Martin et al., 1994). A Nikon inverted microscope (100× magnification) was attached to a Mac II computer via a monochrome video camera (Cohu, Inc., San Diego, Calif.). Four random areas were counted per plate and there were 4 plates per treatment group, unless otherwise indicated. Neurites were defined as processes at least 2× the length of the perikaryon. To assess the reliability of the image analyses, a reticle was used for direct quantification of cells in the same view as the one analyzed in random samples.
PC12 cells were differentiated for 1 week with NGF. Drugs were administered for the 4 day interval after removal of serum and NGF. Neuites were counted and expressed as the mean±SEM of at least 3 plates/group.

The subject of assay [4] is rat. The assay can be described thus: Focal ischemia infarct size in rats. The format is in vivo. The method, then: FIG. 3. […] Rats received a 30 minute ischemia attack through tying of their common carotid; the amount of cell death (proportional to Infarct Size) was determined 24 hours later. Some animals received the benzylidene-anabaseine compound DMXB (1 mg/kg IP, salt weight) 1 hour before ligation, or the nicotinic antagonist mecamylamine (0.5 mg/kg IP), or both mecamylamine and DMXB, or DMXB 5 minutes after the ligation.
Male Sprague Dawley albino male rats (250-300 g) were anesthetized with a subcutaneous injection of ketamine, xylazine, and acepromazine (3:3:1 mixture, 0.7 cc/kg). Atropine (0.4 mg/kg IP) was injected several min prior to dissection of the carotid artery from the vagus. The internal carotid artery (ICA) was dissected until its proximal bifurcation into the terminal ICA and pterygopalatine arteries were clearly defined. The pterygopalatine artery was clipped parallel to and flush with the terminal ICA. Another clip was applied to the common carotid artery (CCA). The distal aspect of the external carotid artery (ECA) was coagulated and a straight aneurysm clip was applied 4 mm distal to the proximal ICA bifurcation. A suture was passed through the arteriotomized ECA stump into the ICA until the tip was resting against the aneurysm clip. The suture was removed 30 min later, with body temperature maintained between 36.5-37.5° C. The ECA stump was coagulated with bipolar electrocautery. Clips were removed and the wound was irrigated with saline prior to suturing.
Rats were euthanised 24 hours post-infarction and their brains removed and sectioned coronally (2 mm). Sections were placed into a 2% solution of 2,3,5-triphyenyl-tetrazolium cholide (Sigma Chemical Co., St. Louis. Mo.) for 20 minutes at 37° C. The sections were removed to a petri dish and covered with 10% formaldehyde solution. The outline function of the NIH Image computer program (version 1.47) was used to estimate the infarcted and total brain areas for each section. Infarct size was calculated as percent of total brain area.

The subject of assay [5] is NB Lesion. Briefly: NB Lesion (Table 4). Format: in vivo.

T1 sequence (P09483 31-630): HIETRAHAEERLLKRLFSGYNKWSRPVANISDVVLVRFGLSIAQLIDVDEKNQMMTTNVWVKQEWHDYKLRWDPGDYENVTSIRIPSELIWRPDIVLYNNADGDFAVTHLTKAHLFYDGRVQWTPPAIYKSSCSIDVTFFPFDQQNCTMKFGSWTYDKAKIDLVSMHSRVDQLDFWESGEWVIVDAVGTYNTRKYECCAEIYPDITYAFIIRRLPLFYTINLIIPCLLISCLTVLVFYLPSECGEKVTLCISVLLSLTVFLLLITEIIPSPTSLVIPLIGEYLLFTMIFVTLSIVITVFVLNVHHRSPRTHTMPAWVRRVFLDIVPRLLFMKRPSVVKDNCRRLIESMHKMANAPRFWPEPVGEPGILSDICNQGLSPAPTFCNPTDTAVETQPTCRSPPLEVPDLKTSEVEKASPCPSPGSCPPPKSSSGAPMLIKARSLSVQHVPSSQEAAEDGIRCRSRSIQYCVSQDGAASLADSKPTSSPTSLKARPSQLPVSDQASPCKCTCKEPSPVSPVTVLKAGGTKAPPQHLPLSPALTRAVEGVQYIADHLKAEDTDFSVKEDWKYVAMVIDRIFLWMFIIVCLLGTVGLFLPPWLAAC
T1 sequence (P12390 25-500): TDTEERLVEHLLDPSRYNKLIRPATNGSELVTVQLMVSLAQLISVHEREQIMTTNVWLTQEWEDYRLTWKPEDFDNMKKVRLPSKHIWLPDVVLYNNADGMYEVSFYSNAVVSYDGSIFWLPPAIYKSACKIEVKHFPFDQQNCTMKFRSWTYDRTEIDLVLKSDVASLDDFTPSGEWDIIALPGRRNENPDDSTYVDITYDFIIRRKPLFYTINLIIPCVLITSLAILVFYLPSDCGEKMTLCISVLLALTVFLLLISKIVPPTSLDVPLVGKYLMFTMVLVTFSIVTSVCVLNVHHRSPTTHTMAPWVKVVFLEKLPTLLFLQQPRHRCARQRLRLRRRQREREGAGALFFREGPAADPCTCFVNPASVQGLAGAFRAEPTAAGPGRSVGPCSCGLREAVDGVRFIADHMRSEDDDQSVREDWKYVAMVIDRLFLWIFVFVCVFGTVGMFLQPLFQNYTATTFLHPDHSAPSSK

Regarding `COc1ccccc1/C=C/C=C1\CCCN=C1c1cccnc1` [2-MeOCA, E,E-3-(2-Methoxycinnamylidene)anabaseine], the inhibition at 1 µM in assay [1] worked out at 29%. Also, the “effective dose-response range, upper end” value in assay [2] (IP) is reported as “at least 3 mg/kg”. Besides, the “passive avoidance behavior (in words)” value in assay [2] (IP) was “most potent”; in assay [2] (IP, listed as 2MeOCA), “most potent performance-enhancing agent”; in assay [2] (IP, listed as trans-3(2-methoxy-cinnamylidene) anabaseine), “less potent than the present compounds”; in assay [2] (IP, listed as trans-3-(2-methoxycinnamylidene) anabaseine), “high potency”. Also, in assay [2] (Rattus norvegicus, ip, read-out: effective dose-response range, lower end), the minimal effective dose is under 0.1 mg/kg. Besides, the “neurite protection during NGF-deprivation (in words)” value in assay [3] (10 μM) is recorded as “Neither 2-MeOCA nor 4-MeOCA elicited neurite-protection”. Also, the “Neurite Counts” value in assay [3] (10 μM (NGF 100 ng/ml), 4 days after removal of serum and NGF, mean±SEM, * p<0.05) is recorded as 213 ± 26.

As for `COc1ccc(/C=C2\CCCN=C2c2cccnc2)c(OC)c1` [DMXB, 3-(2,4-Dimethoxybenzylidene) anabaseine], the “protection against infarct / cell loss, given before ischemia (in words)” value in assay [4] (1 mg/kg IP before ischemia) was “protected principally in the posterior infarct area; also recorded: protected against cell loss; also recorded: did not have as much cell loss”. Further, the “infarct size (mean value)” value in assay [4] (coronal section 5 mm posterior to frontal pole, saline 28%) was 19%. The “protection against infarct, given during or after start of ischemia (in words)” value in assay [4] (during 30 min ischemic insult) is reported as “ineffective”. The “NB Lesion” value in assay [5] is given as “+ (≥ 0.5)”.
